Where two headings read alike, the source gives them in different places.
Tests used:
Xenopus laevis VDR = target: T1, Xenopus laevis VDR (Xenopus laevis, UniProt O13124); assay: luciferase reporter transactivation assay in HepG2-NTCP cells, GAL4/xlVDR LBD chimera with tk-UAS-Luc; format: cell-based
T1 sequence (O13124 90-422): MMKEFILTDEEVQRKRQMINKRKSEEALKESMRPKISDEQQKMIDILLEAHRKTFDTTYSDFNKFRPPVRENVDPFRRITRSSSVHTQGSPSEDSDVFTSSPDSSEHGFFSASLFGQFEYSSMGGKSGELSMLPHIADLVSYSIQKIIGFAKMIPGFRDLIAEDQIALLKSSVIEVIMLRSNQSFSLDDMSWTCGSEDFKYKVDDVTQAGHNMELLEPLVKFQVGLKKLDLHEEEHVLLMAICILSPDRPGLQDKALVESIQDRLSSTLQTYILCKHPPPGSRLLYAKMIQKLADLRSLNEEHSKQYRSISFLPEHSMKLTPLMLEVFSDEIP

Zebrafish VDR = target: T2, Zebrafish VDR (Danio rerio, UniProt Q9PTN2); assay: luciferase reporter transactivation assay in HepG2-NTCP cells, GAL4/zfVDR LBD chimera with tk-UAS-Luc; format: cell-based
T2 sequence (Q9PTN2 121-453): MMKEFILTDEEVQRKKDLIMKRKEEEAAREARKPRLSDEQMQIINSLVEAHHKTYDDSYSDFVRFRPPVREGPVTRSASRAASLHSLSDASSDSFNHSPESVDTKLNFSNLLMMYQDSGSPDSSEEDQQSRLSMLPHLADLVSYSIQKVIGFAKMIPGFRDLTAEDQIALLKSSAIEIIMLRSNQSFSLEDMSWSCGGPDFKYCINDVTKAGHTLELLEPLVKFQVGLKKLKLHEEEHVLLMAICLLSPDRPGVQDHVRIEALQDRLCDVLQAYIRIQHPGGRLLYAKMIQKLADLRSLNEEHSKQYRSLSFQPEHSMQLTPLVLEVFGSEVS

Sea lamprey VDR = target: T3, Sea lamprey VDR (Petromyzon marinus, UniProt Q7ZZY9); format: cell-based
T3 sequence (Q7ZZY9 92-406): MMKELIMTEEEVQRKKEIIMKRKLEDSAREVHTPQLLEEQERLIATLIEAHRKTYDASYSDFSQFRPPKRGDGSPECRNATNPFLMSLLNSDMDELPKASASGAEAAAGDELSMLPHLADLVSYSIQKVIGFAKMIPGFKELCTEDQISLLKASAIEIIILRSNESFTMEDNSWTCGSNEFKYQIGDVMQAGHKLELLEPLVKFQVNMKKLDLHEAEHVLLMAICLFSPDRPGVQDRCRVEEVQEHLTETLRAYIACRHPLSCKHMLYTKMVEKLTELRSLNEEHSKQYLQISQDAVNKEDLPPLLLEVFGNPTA

β-actin = assay: zebrafish in vivo liver transcription, semi-quantitative RT-PCR: β-actin; conditions: ip, 15 mg/kg, 48 h
Method: (§1) Adult zebrafish were purchased from a commercial fish supplier and acclimatized for at least two-weeks in 20 L tanks with flow-through freshwater at 22°C. A single dose of 15 mg/kg of 5α-cyprinol, 5β-cyprinol 27-sulfate, 5α-scymnol or 5β-scymnol-27 sulfate, dissolved in saline, was injected intraperitoneally. A control group was injected with saline. After 48 hr, the animals were decapitated and livers of three fish (n = 5 each group) were removed, pooled and weighed, totalizing 15 fish per group. Fish were not fed throughout the experimental period. […].
(§2) To study the transcription of CYP3C1, ABCB5, PXR, GAPDH and β-actin genes in zebrafish, initial fragments of these genes were identified (Genbank: AW202769, Genbank: BQ284593, Genbank: AAM22215, Genbank: BC083506, Genbank: AF057040, respectively). The PCR primers for CYP3C1 were designed using MacVector Software and primers for MDR1 were designed using Primer 3 Software (Whitehead Institute for Biomedical Research; [75]). Primer pairs for amplifying CYP3C1 fragment were 5'-[…]-3' (sense) and 5'-[…]-3' (antisense) and for amplifying ABCB5 were 5'-[…]-3' (sense) and 5'-[…]-3' (antisense). The PCR primers for PXR were 5'-[…]-3' (sense) and 5'-[…]-3' (antisense), for amplifying GAPDH were 5'-[…]-3' (sense) and 5' […] 3' (antisense) and for β-actin were 5'-[…]-3' (sense) and 5'-[…]-3' (antisense). RNA was isolated using Trizol (Invitrogen) according to manufacturer's instructions. Purity and concentration of RNA of each sample were verified at 260 nm. The RNA integrity was checked by non-denaturing gel electrophoresis using 1 μg of total RNA in each sample.
(§3) Two micrograms of total RNA were reversed transcribed using Ominiscript RT Kit (Qiagen, Valencia, CA, USA). cDNA concentration was checked at 260 nm, and the amount adjusted to 1 μg to perform semi-quantitative RT-PCR. The expected size of the PXR, Cyp3C1, abcb5, GAPDH and β-actin fragments were 577, 477, 218, 234 and 550 bp, respectively. Biotools DNA polymerase (Biotools B&M Labs, S.A., Madrid, Spain) kit was used for the PCR reaction using a thermocycler Personal Mastercycler (Eppendörf) with the following PCR program: 5 cycles of 94°C for 5 s, 72°C for 35 s; 5 cycles of 94°C for 5 s, 70°C for 10 s, 72°C for 35 s; and 23, 24, 35, 15 and 24 cycles (PXR, Cyp3C1, abcb5, GAPDH and β-actin, respectively) of 94°C for 5 s, 61, 54, 48, 49 and 61°C for 10 s (PXR, Cyp3C1, abcb5, GAPDH and β-actin, respectively), and 72°C for 35 s. The PXR, CYP3C1, ABCB5 and GAPDH transcript levels were quantified using Gel-Quant™ (Multiplexed Biotechologies) and β-actin was used to normalize the data. The Shapiro-Wilk W test was used to evaluate normality. When data were parametric the analysis was performed using Student t test; otherwise Mann Whitney U test was applied. […]

[1] = tested on: glyceraldehyde 3-phosphate dehydrogenase (GAPDH); assay: zebrafish in vivo liver transcription, semi-quantitative RT-PCR: GAPDH; conditions: 15 mg/kg intraperitoneally, single dose, 48 hr
Method: Adult zebrafish were purchased from a commercial fish supplier and acclimatized for at least two-weeks in 20 L tanks with flow-through freshwater at 22°C. A single dose of 15 mg/kg of 5α-cyprinol, 5β-cyprinol 27-sulfate, 5α-scymnol or 5β-scymnol-27 sulfate, dissolved in saline, was injected intraperitoneally. A control group was injected with saline. After 48 hr, the animals were decapitated and livers of three fish (n = 5 each group) were removed, pooled and weighed, totalizing 15 fish per group. Fish were not fed throughout the experimental period.
as §2, with “The PCR primers for CYP3C1 were designed using MacVector Software and primers for MDR1 were designed using Primer 3 Software (Whitehead Institute for Biomedical Research; [75]).” left out, “Purity and concentration of RNA of each sample were verified at 260 nm.” left out
The PXR, CYP3C1, ABCB5 and GAPDH transcript levels were quantified using Gel-Quant™ (Multiplexed Biotechologies) and β-actin was used to normalize the data. The Shapiro-Wilk W test was used to evaluate normality. When data were parametric the analysis was performed using Student t test; otherwise Mann Whitney U test was applied.

[2] = tested on: MDR1 (tentatively classified as ABCB5 in zebrafish); assay: zebrafish in vivo liver transcription, semi-quantitative RT-PCR: MDR1; conditions: ip, 15 mg/kg, 48 h
Method: as §1, §2, §3

PXR = assay: zebrafish in vivo liver transcription, semi-quantitative RT-PCR: PXR; conditions: ip, 15 mg/kg, 48 h
Method: as §1, §2, §3

CYP3C1 = assay: zebrafish in vivo liver transcription, semi-quantitative RT-PCR: CYP3C1; conditions: ip, 15 mg/kg, 48 h
Method: as §1, §2, §3

zebrafish PXR [3] = conditions: cited from earlier work
[4] = tested on: ethoxyresorufin O-deethylase (EROD) activity (CYP1A-like activity); assay: in vitro
Method: (§4) The cells are cultured at 26°C in ambient atmosphere.

[5] = tested on: testosterone 6β-hydroxylation activity (CYP3A-like activity); assay: in vitro; conditions: zebrafish
Method: as §4
(§5) 100 μL of sample, calibration standard, or quality material standard were pipetted into separate microcentrifuge tubes and mixed with 100 μL of methanol. Samples were vortexed and centrifuged at 13,000 rpm for 4 min. The supernatant was then injected into the HPLC.
(§6) The flow rate was 1.2 mL/min and total run time was 25 min.

zebrafish PXR [6] = tested on: zebrafish PXR
[7] = tested on: testosterone 6β-hydroxylation; assay: testosterone hydroxylation (HPLC) in sea lamprey primary hepatocytes; format: cell-based; conditions: concentration ranges per compound
Method: as §5, §6

[8] = tested on: flurbiprofen 4-hydroxylation activity (CYP2C-like activity)
EROD activity = assay: EROD assay in sea lamprey primary hepatocytes; conditions: 24–48 hr exposure
[9] = screening for activators, at least three concentrations of each drug

SMILES | Effect on Xenopus laevis VDR (Xenopus laevis VDR; [9]) | Effect on zebrafish VDR (Zebrafish VDR; [9]) | Effect on sea lamprey VDR (Sea lamprey VDR; [9]) | liver transcription of β-actin (β-actin) [arbitrary units] | liver transcription of GAPDH [1] | liver transcription of MDR1 (ABCB5) [2] | liver transcription of PXR (PXR) | liver transcription of CYP3C1 (CYP3C1) | activity at recombinant zebrafish PXR (zebrafish PXR [3]) | Effect on Xenopus laevis VDR (Xenopus laevis VDR) | Effect on zebrafish VDR (Zebrafish VDR) | Effect on sea lamprey VDR (Sea lamprey VDR) | effect on EROD activity [4] | EC50 [5] [µM] | activation of recombinant zebrafish PXR (zebrafish PXR [6]) | effect on testosterone 6β-hydroxylation [7] | maximal flurbiprofen 4-hydroxylation activities [8] | effect on EROD activity (EROD activity)
C[C@H](CCC(O)C(CO)CO)[C@H]1CC[C@H]2[C@@H]3[C@H](O)C[C@@H]4C[C@H](O)CC[C@]4(C)[C@H]3C[C@H](O)[C@]12C (stereo partly drawn) [5β-scymnol, 5β-cholestan-3α,7α,12α,24,26,27-hexol] | No effect | No effect | No effect | 62.2 ± 21.8 | 1.17 ± 0.58 arbitrary units normalized to β-actin | 1.08 ± 0.17 arbitrary units normalized to β-actin | 0.92 ± 0.38 arbitrary units normalized to β-actin | 1.17 ± 0.50 arbitrary units normalized to β-actin | both inactive at recombinant zebrafish PXR | – | – | – | – | – | – | – | – | –
CCC1(c2ccccc2)C(=O)NC(=O)NC1=O [Phenobarbital] | – | – | – | – | – | – | – | – | – | No effect | No effect | No effect | found not to affect EROD activity | 928 ± 109 | all activate recombinant zebrafish PXR | None of these compounds produced significant increases in testosterone 6β-hydroxylation | greater than 50 nmol/min/mg protein | did not alter EROD activity

From article PMC2263054, “Functional evolution of the vitamin D and pregnane X receptors” (BMC Evolutionary Biology, 2007)
